Patent US7709511B2, “Benzothiazolone derivatives” (AstraZeneca AB, priority 2005, dated 2010)
Where a name gives a salt, the structure may show the parent alone.

What was measured:
[1] = molecular target: T1, Adrenergic β2 (Homo sapiens, UniProt P07550); assay: Adrenergic β2 mediated cAMP production in H292 cells (AlphaScreen cAMP detection); assay type: cell-based; details: for EC50: cAMP, test compounds incubated 10 minutes at room temperature, 300 μM rolipram; for Intrinsic Activity: fraction relative to the maximum activity determined for formoterol, 10 minutes incubation
T1 construct: endogenous in cells; host or cells: H292 cells
T1 sequence (P07550 whole entry): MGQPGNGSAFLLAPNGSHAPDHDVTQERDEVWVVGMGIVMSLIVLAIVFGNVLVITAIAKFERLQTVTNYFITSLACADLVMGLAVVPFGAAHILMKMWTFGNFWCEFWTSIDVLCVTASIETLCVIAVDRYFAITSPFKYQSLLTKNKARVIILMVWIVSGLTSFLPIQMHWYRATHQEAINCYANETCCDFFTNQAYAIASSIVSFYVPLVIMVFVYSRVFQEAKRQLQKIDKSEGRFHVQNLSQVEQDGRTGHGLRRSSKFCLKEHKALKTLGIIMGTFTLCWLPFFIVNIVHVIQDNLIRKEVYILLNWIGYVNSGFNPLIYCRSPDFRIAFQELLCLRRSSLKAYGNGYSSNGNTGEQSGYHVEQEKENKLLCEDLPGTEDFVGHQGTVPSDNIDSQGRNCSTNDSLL
Method: Adrenergic β2 Mediated cAMP Production
H292 cells were grown in RPMI (Roswell Park Memorial Institute) medium containing, 10% (v/v) FBS (foetal bovine serum) and 2 mM L-glutamine. Cells were grown in 225 cm2 flasks containing 25 mL media in a humidified incubator at 37° C., 5% CO2. Cells were harvested from the flask and passaged at a 1 in 10 dilution once per week.
The media from flasks containing H292 cells was removed, rinsed with 10 mL PBS (phosphate buffered saline) and replaced with 10 mL Accutase™ cell detachment solution. Flasks were incubated for 15 minutes in a humidified incubator at 37° C., 5% CO2. The cell suspension was counted and the cells re-suspended in RPMI media (containing 10% (v/v) FBS and 2 mM L-glutamine) at 0.05×10^6 cells per mL. 5000 cells in 100 μL were added to each well of a tissue-culture-treated 96-well plate and the cells incubated overnight in a humidified incubator at 37° C., 5% CO2. The culture media was removed, washed twice with 100 μL assay buffer and replaced with 50 μL assay buffer. Cells were rested at room temperature for 20 minutes after which time 25 μL of rolipram (1.2 mM made up in assay buffer containing 2.4% (v/v) dimethylsulphoxide) was added. Cells were incubated with rolipram for 10 minutes after which time test compounds (made up as ×4 concentrated stocks in assay buffer containing 4% (v/v) dimethylsulphoxide) were added and the cells were incubated for 10 minutes at room temperature. Final rolipram concentration in the assay was 300 μM and final vehicle concentration was 1.6% (v/v) dimethylsulphoxide. The reaction was stopped by removing supernatants, washing once with 100 μL assay buffer and replacing with 50 μL lysis buffer. The cell monolayer was frozen at −80° C. for 30 minutes (or overnight).
(§1) AlphaScreen™ cAMP Detection
(§2) The concentration of cAMP (cyclic adenosine monophosphate) in the cell lysate was determined using the AlphaScreen™ methodology. The frozen cell plate was thawed for 20 minutes on a plate shaker then 10 μL of the cell lysate was transferred to a 96-well white plate. 40 μL of mixed AlphaScreen™ detection beads (containing equal volumes of donor beads (pre-incubated with biotinylated cAMP in the dark for 30 minutes) and acceptor beads), was added to each well and the plate incubated at room temperature for 10 hours in the dark. The AlphaScreen™ signal was measured using an EnVision spectrophotometer (Perkin-Elmer Inc.) with the recommended manufacturer's settings. cAMP concentrations were determined by reference to a calibration curve determined in the same experiment using standard cAMP concentrations (made up in lysis buffer in a 96-well tissue-culture-treated plate and frozen/thawed alongside the test samples) and detected using the same protocol. Concentration response curves for agonists were constructed to determine both the pEC50 and Intrinsic Activity. Intrinsic Activity was expressed as a fraction relative to the maximum activity determined for formoterol in each experiment.

[2] = molecular target: T1, Adrenergic β2; assay: Alternative adrenergic β2 mediated cAMP production in H292 cells (AlphaScreen cAMP detection); assay type: cell-based; details: for EC50: cAMP, test compounds incubated 60 minutes at room temperature, 300 μM rolipram, read-out: β2 pEC50 (converted); for β2 Int Act: fraction relative to the maximum activity determined for formoterol, 60 minutes incubation
Method: Alternative Adrenergic β2 Mediated cAMP Production Cell Preparation
H292 cells were grown in 225 cm2 flasks incubator at 37° C., 5% CO2 in RPMI medium containing, 10% (v/v) FBS (foetal bovine serum) and 2 mM L-glutamine.
Adherent H292 cells were removed from tissue culture flasks by treatment with Accutase™ cell detachment solution for 15 minutes. Flasks were incubated for 15 minutes in a humidified incubator at 37° C., 5% CO2. Detached cells were re-suspended in RPMI media (containing 10% (v/v) FBS and 2 mM L-glutamine) at 0.05×10^6 cells per mL. 5000 cells in 100 μL were added to each well of a tissue-culture-treated 96-well plate and the cells incubated overnight in a humidified incubator at 37° C., 5% CO2. The culture media was removed and cells were washed twice with 100 μL assay buffer and replaced with 50 μL assay buffer (HBSS solution containing 10 mM HEPES pH7.4 and 5 mM glucose). Cells were rested at room temperature for 20 minutes after which time 25 μL of rolipram (1.2 mM made up in assay buffer containing 2.4% (v/v) dimethylsulphoxide) was added. Cells were incubated with rolipram for 10 minutes after which time test compounds were added and the cells were incubated for 60 minutes at room temperature. The final rolipram concentration in the assay was 300 μM and final vehicle concentration was 1.6% (v/v) dimethylsulphoxide. The reaction was stopped by removing supernatants, washing once with 100 μL assay buffer and replacing with 50 μL lysis buffer. The cell monolayer was frozen at −80° C. for 30 minutes (or overnight).
as §1
as §2, with “using” for “using the”, “pre-incubated” for “(containing equal volumes of donor beads (pre-incubated”, “cAMP,” for “cAMP in the dark for 30 minutes) and acceptor beads),”, “concentrations.” for “concentrations (made up in lysis buffer in a 96-well tissue-culture-treated plate and frozen/thawed alongside the test samples) and detected using the same protocol.”, “constructed and data was fitted to a four parameter logistic equation” for “constructed”

| SMILES | EC50 [1] [nM] | Intrinsic Activity [1] | EC50 [2] [nM] | β2 Int Act [2] |
| --- | --- | --- | --- | --- |
| O=C(CCOCCc1ccccc1)N(CCNCCc1ccc(O)c2[nH]c(=O)sc12)Cc1cccnc1 [Example 5, N-[2-[2-(4-Hydroxy-2-oxo-3H-benzothiazol-7-yl)ethylamino]ethyl]-3-phenethyloxy-N-(3-pyridylmethyl)propanamide] | 12.6 | 0.8 | – | – |
| CCN(CC)CCN(CCNCCc1ccc(O)c2[nH]c(=O)sc12)C(=O)CCOCCc1ccccc1 [Example 12, N-[2-(Diethylamino)ethyl]-N-(2-{[2-(4-hydroxy-2-oxo-2,3-dihydro-1,3-benzothiazol-7-yl)ethyl]amino}ethyl)-3-(2-phenylethoxy)propanamide] | 15.8 | 0.8 | 7.94 | 0.8 |
| O=c1[nH]c2c(O)ccc(CCNCCN(CCCOCCc3ccccc3)CCc3ccccc3)c2s1 [Example 13, 4-Hydroxy-7-[2-({2-[[3-(2-phenylethoxy)propyl](2-phenylethyl)amino]ethyl}amino)-ethyl]-1,3-benzothiazol-2(3H)-one] | – | – | 63.1 | 0.5 |
| CN(C)CCN(CCNCCc1ccc(O)c2[nH]c(=O)sc12)C(=O)CCOCCc1ccccc1 [Example 14, N-[2-(Dimethylamino)ethyl]-N-(2-{[2-(4-hydroxy-2-oxo-2,3-dihydro-1,3-benzothiazol-7-yl)ethyl]amino}ethyl)-3-(2-phenylethoxy)propanamide] | – | – | 7.94 | 1 |
| CCN(CC)CCN(CCNCCc1ccc(O)c2[nH]c(=O)sc12)C(=O)CCOCCc1cc(OC)ccc1Br [Example 21, 3-[2-(2-Bromo-5-methoxyphenyl)ethoxy]-N-[2-(diethylamino)ethyl]-N-(2-{[2-(4-hydroxy-2-oxo-2,3-dihydro-1,3-benzothiazol-7-yl)ethyl]amino}ethyl)propanamide dihydrobromide] | – | – | 79.4 | 0.6 |
| CCN(CC)CCN(CCNCCc1ccc(O)c2[nH]c(=O)sc12)C(=O)CCOCCc1c(Cl)cccc1Cl [Example 24, 3-[2-(2,6-Dichlorophenyl)ethoxy]-N-(2-diethylaminoethyl)-N-{2-[2-(4-hydroxy-2-oxo-2,3-dihydro-1,3-benzothiazol-7-yl)ethylamino]ethyl}propanamide dihydrobromide] | – | – | 100 | 0.9 |
| CCN(CC)CCN(CCNCCc1ccc(O)c2[nH]c(=O)sc12)C(=O)CCOCCc1cccc(C(F)(F)F)c1 [Example 25, N-(2-Diethylaminoethyl)-N-{2-[2-(4-hydroxy-2-oxo-2,3-dihydro-1,3-benzothiazol-7-yl)ethylamino]ethyl}-3-[2-(3-trifluoromethylphenyl)ethoxy]propanamide dihydrobromide] | – | – | 63.1 | 0.8 |

The remaining lines, values ahead:

| EC50 [1] [nM] | Intrinsic Activity [1] | EC50 [2] [nM] | β2 Int Act [2] | SMILES |
| --- | --- | --- | --- | --- |
| 63.1 | 0.7 | – | – | CC(C)(C)OC(=O)N1CCC(CN(CCNCCc2ccc(O)c3[nH]c(=O)sc23)C(=O)CCOCCc2ccccc2)CC1 [Example 1, tert-Butyl 4-({(2-{[2-(4-hydroxy-2-oxo-2,3-dihydro-1,3-benzothiazol-7-yl)ethyl]amino}ethyl)[3-(2-phenylethoxy)propanoyl]amino}methyl)piperidine-1-carboxylate] |
| 1.26 | 0.7 | – | – | O=C(CCOCCc1ccccc1)N(CCCNCCc1ccc(O)c2[nH]c(=O)sc12)CCc1ccccc1 [Example 8, N-(3-{[2-(4-Hydroxy-2-oxo-2,3-dihydro-1,3-benzothiazol-7-yl)ethyl]amino}propyl)-3-(2-phenylethoxy)-N-(2-phenylethyl)propanamide] |
| 5.01 | 0.6 | 7.94 | 0.7 | O=C(CCOCCc1ccc(Br)cc1)N(CCNCCc1ccc(O)c2[nH]c(=O)sc12)CCc1ccccc1 [Example 10, 3-[2-(4-Bromophenyl)ethoxy]-N-[2-[2-(4-hydroxy-2-oxo-3H-benzothiazol-7-yl)ethylamino]ethyl]-N-phenethyl-propanamide] |
| – | – | 12.6 | 0.8 | CCN(CC)CCN(CCNCCc1ccc(O)c2[nH]c(=O)sc12)C(=O)CCOCCc1ccc(O)cc1 [Example 19, N-[2-(Diethylamino)ethyl]-N-(2-{[2-(4-hydroxy-2-oxo-2,3-dihydro-1,3-benzothiazol-7-yl)ethyl]amino}ethyl)-3-[2-(4-hydroxyphenyl)ethoxy]propanamide ditrifluoroacetate] |
